EPSA data for eight compounds are collected here from US20260022143A1, “Cyclic Peptide Inhibitors of IL-23” (JANSSEN PHARMACEUTICA NV, priority 2022, published 2026).

SMILES strings stand for the structures. Starred links: 1 amine or outer side, 2 acyl side, 3 side chain; linkers in the order of their positions; H or OH if unused. Positions of bridges follow the written chain, without caps; N, C: chain ends. Non-standard residues stand in square brackets, D forms with d. Residues, ends and D or L forms follow the SMILES beside them. Groups on a side chain read outwards from the residue. *: point of attachment. Me3N+(CH2)2O(CH2)2O(CH2)2CO = C[N+](C)(C)CCOCCOCCC(=O)*; CH2CH2OCH2CH2OCH2CH2NMe3+ = C[N+](C)(C)CCOCCOCC*; Trp(7-Me) = Cc1cccc2c(C[C@H](N)C(=O)O)c[nH]c12; Abu(4-yl) = O=C([C@H](CC[*:3])N[*:1])[*:2]; dLys(Me3) = C[N+](C)(C)CCCC[C@@H](N)C(=O)O; γGlu = O=C(O)[C@H](CCC(=O)[*:2])N[*:1]; 2Nal = N[C@@H](Cc1ccc2ccccc2c1)C(=O)O; AEF = NCCOc1ccc(C[C@H](N)C(=O)O)cc1; X82 = C[N+](C)(C)CCOCCOCCOCCOCCN*; 3Pal = N[C@@H](Cc1cccnc1)C(=O)O; Myristoyl = CCCCCCCCCCCCCC(=O)*; Lys(Me) = CNCCCC[C@H](N)C(=O)O; NHCH2CH2OCH2CH2OMe = COCCOCCN*; Pen = CC(C)(S)[C@H](N)C(=O)O; αMeC = C[C@](N)(CS)C(=O)O; Thp = NC1(C(=O)O)CCOCC1; X3 = C[N+](C)(C)CCCCC*; X76 = N=C(N)NCCOCCOCC*; AEEA = NCCOCCOCC(=O)O; Sar = CNCC(=O)O

The nature of this data set: Exposed Polar Surface Area (EPSA). The note with it: SFC on Chirex 3014 column; sample 1 mM DMSO stock; read-out: EPSA. Type of data set: physicochemical. The gist of the method:
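Chirex 3014 column, 35 °C, 4 mL/min; CO2/MeOH + 20 mM NH4 formate, 5→60% modifier at 20%/min. UV/MS detection. EPSA (Å^2) from retention time vs 8-standard calibration line; duplicates; 1 mM DMSO stock injected undiluted.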
Turning to `CC(=O)N[C@@H]1C(=O)N[C@@H](CC(=O)N(C)C)C(=O)N[C@@H]([C@@H](C)O)C(=O)N[C@@H](Cc2c[nH]c3c(C)cccc23)C(=O)N[C@@H](CCCCN(C)C(=O)CCOCCOCC[N+](C)(C)C)C(=O)N[C@H](C(=O)N[C@@H](Cc2ccc(OCCOCCOCC[N+](C)(C)C)cc2)C(=O)N[C@@H](Cc2ccc3ccccc3c2)C(=O)NC2(C(=O)N[C@@H](CCCCN(C)C(C)=O)C(=O)N[C@@H](CC(N)=O)C(=O)N[C@@H](Cc3cccnc3)C(=O)N(C)CC(=O)N(C)C)CCOCC2)C(C)(C)SSC1(C)C` [compound 217, MeCO-Pen(3)-N(N(Me)2)-T-7MeW-K(NMePEG3a)-Pen(3)-APEG3F-2Nal-THP-K(NMeAc)-N-3Pya-Sar-CON(Me)2] (Ac-[Pen]D(NMe2)T[Trp(7-Me)][Lys(Me)](Me3N+(CH2)2O(CH2)2O(CH2)2CO)[Pen]Y(CH2CH2OCH2CH2OCH2CH2NMe3+)[2Nal][Thp][Lys(Me)](Ac)N[3Pal][Sar]-NMe2; disulfide 1-6), the EPSA stood at 138 A^2.

As for `CCCCCCCCCCCCCC(=O)N[C@@H](CCC(=O)NCCOCCOCC(=O)NCCOCCOCC(=O)NCCCC[C@@H]1NC(=O)[C@@H](NC(=O)CCOCCOCC[N+](C)(C)C)C(C)(C)SSC(C)(C)[C@@H](C(=O)N[C@@H](Cc2ccc(OCCCCC[N+](C)(C)C)cc2)C(=O)N[C@@H](Cc2ccc3ccccc3c2)C(=O)NC2(C(=O)N[C@@H](CCCCN(C)C(C)=O)C(=O)N[C@@H](CC(N)=O)C(=O)N[C@@H](Cc3cccnc3)C(=O)N(C)CC(=O)N(C)C)CCOCC2)NC(=O)[C@H](CCCCN(C)C(C)=O)NC(=O)[C@H](Cc2c[nH]c3c(C)cccc23)NC(=O)[C@H]([C@@H](C)O)NC1=O)C(=O)O` [compound 388, cPEG3aCO-Pen(3)-K(PEG2PEG2gEC14)-T-7MeW-K(NMeAc)-Pen(3)-TMAPF-2Nal-THP-K(NMeAc)-N-3Pya-Sar-CON(Me)2] ({Me3N+(CH2)2O(CH2)2O(CH2)2CO}-[Pen]K([AEEA-AEEA-γGlu-Myristoyl])T[Trp(7-Me)][Lys(Me)](Ac)[Pen]Y(X3)[2Nal][Thp][Lys(Me)](Ac)N[3Pal][Sar]-NMe2; disulfide 1-6), the EPSA worked out at 161 A^2.

Turning to `COCCOCCNC(=O)CN(C)C(=O)[C@H](Cc1cccnc1)NC(=O)[C@H](CC(N)=O)NC(=O)[C@H](CCC(=O)O)NC(=O)C1(NC(=O)[C@H](Cc2ccc3ccccc3c2)NC(=O)[C@H](Cc2ccc(OCCN)cc2)NC(=O)[C@H]2NC(=O)[C@H](CCCCNC(C)=O)NC(=O)[C@H](Cc3c[nH]c4c(C)cccc34)NC(=O)[C@H]([C@@H](C)O)NC(=O)[C@H](CC(N)=O)NC(=O)[C@@H](NC(C)=O)C(C)(C)SSC2(C)C)CCOCC1` [compound 116] (Ac-[Pen]NT[Trp(7-Me)]K(Ac)[Pen][AEF][2Nal][Thp]EN[3Pal][Sar]-NHCH2CH2OCH2CH2OMe; disulfide 1-6 (inferred)), the EPSA worked out at 170 A^2.

Take `CC(=O)NCCCC[C@@H]1NC(=O)[C@H](Cc2c[nH]c3c(C)cccc23)NC(=O)[C@H]([C@@H](C)O)NC(=O)[C@H](CC(N)=O)NC(=O)[C@@H](NC(C)=O)C(C)(C)SSC(C)(C)[C@@H](C(=O)N[C@@H](Cc2ccc(OCCN)cc2)C(=O)N[C@@H](Cc2ccc3ccccc3c2)C(=O)NC2(C(=O)N[C@@H](CCCCNC(C)=O)C(=O)N[C@@H](CC(N)=O)C(=O)N[C@@H](Cc3cccnc3)C(=O)N(C)CC(=O)NCCOCCOCCOCCOCC[N+](C)(C)C)CCOCC2)NC1=O` [compound 155] (Ac-[Pen]NT[Trp(7-Me)]K(Ac)[Pen][AEF][2Nal][Thp]K(Ac)N[3Pal][Sar]-X82; disulfide 1-6 (inferred)): the EPSA was found to be 150 A^2.

Turning to `CC(=O)NCCCC[C@@H]1NC(=O)[C@H](Cc2c[nH]c3ccccc23)NC(=O)[C@H]([C@@H](C)O)NC(=O)[C@H](CC(N)=O)NC(=O)[C@@H](NC(=O)[C@@H](CCCC[N+](C)(C)C)NC(C)=O)CCSC[C@@](C)(C(=O)N[C@@H](Cc2ccc(OCCN)cc2)C(=O)N[C@@H](Cc2ccc3ccccc3c2)C(=O)NC2(C(=O)N[C@@H](CCCCNC(C)=O)C(=O)N[C@@H](CC(N)=O)C(=O)N[C@@H](Cc3cccnc3)C(=O)N(C)CC(N)=O)CCOCC2)NC1=O` [compound 569, MeCO-k(Me)3-Abu(1)-N-T-W-K(Ac)-aMeC(1)-AEF-2Nal-THP-K(Ac)-N-3Pya-Sar-CONH2] (Ac-[dLys(Me3)][Abu(4-yl)]NTWK(Ac)[αMeC][AEF][2Nal][Thp]K(Ac)N[3Pal][Sar]-NH2; thioether 2-7), the EPSA was 173 A^2.

For `CCCCCCCCCCCCCC(=O)N[C@@H](CCC(=O)NCCOCCOCC(=O)NCCOCCOCC(=O)NCCCC[C@@H]1NC(=O)[C@@H](NC(=O)[C@@H](CCCCNC(=O)COCCOCCNC(=O)COCCOCCNC(=O)CC[C@H](NC(=O)CCCCCCCCCCCCC)C(=O)O)NC(=O)CCOCCOCC[N+](C)(C)C)C(C)(C)SSC(C)(C)[C@@H](C(=O)N[C@@H](Cc2ccc(OCCCCC[N+](C)(C)C)cc2)C(=O)N[C@@H](Cc2ccc3ccccc3c2)C(=O)NC2(C(=O)N[C@@H](CCCCN(C)C(C)=O)C(=O)N[C@@H](CC(N)=O)C(=O)N[C@@H](Cc3cccnc3)C(=O)N(C)CC(=O)N(C)C)CCOCC2)NC(=O)[C@H](CCCCN(C)C(C)=O)NC(=O)[C@H](Cc2c[nH]c3c(C)cccc23)NC(=O)[C@H]([C@@H](C)O)NC1=O)C(=O)O` [compound 381, cPEG3aCO-k(PEG2PEG2gEC14)-Pen(3)-K(PEG2PEG2gEC14)-T-7MeW-K(NMeAc)-Pen(3)-TMAPF-2Nal-THP-K(NMeAc)-N-3Pya-Sar-CON(Me)2] ({Me3N+(CH2)2O(CH2)2O(CH2)2CO}-[dK]([AEEA-AEEA-γGlu-Myristoyl])[Pen]K([AEEA-AEEA-γGlu-Myristoyl])T[Trp(7-Me)][Lys(Me)](Ac)[Pen]Y(X3)[2Nal][Thp][Lys(Me)](Ac)N[3Pal][Sar]-NMe2; disulfide 2-7), the EPSA turned out to be 171 A^2.

Take `CC(=O)N[C@@H]1C(=O)N[C@@H](CC(=O)N(C)C)C(=O)N[C@@H]([C@@H](C)O)C(=O)N[C@@H](Cc2c[nH]c3c(C)cccc23)C(=O)N[C@@H](CCCCN(C)C(C)=O)C(=O)N[C@H](C(=O)N[C@@H](Cc2ccc(OCCCCC[N+](C)(C)C)cc2)C(=O)N[C@@H](Cc2ccc3ccccc3c2)C(=O)NC2(C(=O)N[C@@H](CCCCN(C)C(C)=O)C(=O)N[C@@H](CC(N)=O)C(=O)N[C@@H](Cc3cccnc3)C(=O)N(C)CC(=O)N(C)C)CCOCC2)C(C)(C)SSC1(C)C` [compound 190, MeCO-Pen(3)-N(N(Me)2)-T-7MeW-K(NMeAc)-Pen(3)-TMAPF-2Nal-THP-K(NMeAc)-N-3Pya-Sar-CON(Me)2] (Ac-[Pen]D(NMe2)T[Trp(7-Me)][Lys(Me)](Ac)[Pen]Y(X3)[2Nal][Thp][Lys(Me)](Ac)N[3Pal][Sar]-NMe2; disulfide 1-6 (inferred)): the EPSA amounted to 137 A^2.

On to `CC(=O)N(C)CCCC[C@@H]1NC(=O)[C@H](Cc2c[nH]c3c(C)cccc23)NC(=O)[C@H]([C@@H](C)O)NC(=O)[C@H](CC(=O)N(C)C)NC(=O)[C@@H](NC(=O)CCOCCOCC[N+](C)(C)C)C(C)(C)SSC(C)(C)[C@@H](C(=O)N[C@@H](Cc2ccc(OCCOCCOCCNC(=N)N)cc2)C(=O)N[C@@H](Cc2ccc3ccccc3c2)C(=O)NC2(C(=O)N[C@@H](CCCCN(C)C(C)=O)C(=O)N[C@@H](CC(N)=O)C(=O)N[C@@H](Cc3cccnc3)C(=O)N(C)CC(=O)N(C)C)CCOCC2)NC1=O` [compound 405, cPEG3aCO-Pen(3)-N(N(Me)2)-T-7MeW-K(NMeAc)-Pen(3)-GPEG3F-2Nal-THP-K(NMeAc)-N-3Pya-Sar-CON(Me)2] ({Me3N+(CH2)2O(CH2)2O(CH2)2CO}-[Pen]D(NMe2)T[Trp(7-Me)][Lys(Me)](Ac)[Pen]Y(X76)[2Nal][Thp][Lys(Me)](Ac)N[3Pal][Sar]-NMe2; disulfide 1-6), for which the EPSA was determined as 157 A^2.
